# Measurements: patent US12319652B2, “Salts and solid forms of (R)-1-(5-methoxy-1H-indol-1-yl)-N,N-dimethylpropan-2-amine” (priority 2021, dated 2025)
# Tests used:
# [1] = Equilibrium humidity evaluation of crystalline compound 1 HCl Form A (95% RH/20° C.); type: physicochemical
# Protocol: The stability of crystalline compound 1 HCl Form A was evaluated. Absorbent compound 1·Cl (Form A), (100 mg) was maintained, open-capped at 95% RH/20° C. and monitored at t=0, t=5 d and t=10 d, time points.
# While absorbent Compound 1 HCl Form A), (100 mg) was placed open-capped inside double, cable-tied, electrostatic polythene bags (to mimic a typical packaging configuration) and placed inside the same humidity chamber at 95% RH at 20° C. and monitored at t=0, t=5 d and t=10 d time points. Stability of compound 1·HCl (Form A) at 40° C./75% RH was examined as part of the salt screen, and was stable over 10 d.
# [2] = Qualitative solubility screen of Compound 1 Fumarate in solvents; type: physicochemical
# Protocol: The salt compound also dissolved in refluxing methylisobutyketone (MIBK) at 15 vol concentration. Consistent with Example 1, the solutions formed were cooled and the IPA, 2-MeTHF and MIBK solutions yielded solid material on cooling. The solid product obtained from MIBK was analyzed by XRPD, TG and ^1H NMR—the XRPD diffractogram is provided as FIG. 1 and the ^1H NMR spectrum is provided as FIG. 2.
# Compound 1·Fumarate was soluble in many of the common solvents assessed (predominantly Classes 2 and 3 solvents) at 5.0 vol (200 mg/ml), 10.0 vol, 15.0 vol and 20.0 vol (refer to Table). Solids were isolated on cooling from isopropanol (IPA, 5.0 vol), 2-MeTHF (5.0 vol) and methylisobutylketone (MIBK, 15.0 vol). The products from IPA and 2-MeTHF were gums, and not pursued further.
# Compound 1 Fumarate (batch 1, 25 mg, 1 wt) was weighed out in 20 separate vials to qualitatively examine the solubility in an array of diverse solvents. […] If insoluble at 5 vol, the solvent quantity was increased to 10 vol, 15 vol and 20 vol of the respective solvent. The suspensions that occurred upon cooling down were centrifuged and the solvent wet pellets were analysed by XRPD. The insoluble suspensions were additionally worked up for XRPD analysis. The resultant powder patterns were subsequently cross-referenced against the input supplied material.
# [3] = t = 10 d, open-capped vial inside double bags at 95% RH/20 (Table 111)
# [4] = t = 10 d, open-capped vial inside double bags at 95% RH/20 (Table 112)
compound,measurement,setting,value
COc1ccc2c(ccn2C[C@@H](C)N(C)C)c1.Cl [Compound 1 HCl],"HPLC purity data, peak RT 11.41, RRT 0.94","[1]; t = 0, Table 111",0.07
same,"HPLC purity data, peak RT 12.41, RRT 1.00 (main peak)","[1]; t = 0, Table 111",99.65
same,"HPLC purity data, peak RT 14.32, RRT 1.18","[1]; t = 0, Table 111",0.03
same,"HPLC purity data, peak RT 15.05, RRT 1.24","[1]; t = 0, Table 111",0.05
same,"HPLC purity data, peak RT 15.41, RRT 1.27","[1]; t = 0, Table 111",0.07
same,"HPLC purity data, peak RT 15.78, RRT 1.30","[1]; t = 0, Table 111",0.04
same,"HPLC purity data, peak RT 16,50, RRT 1.36","[1]; t = 0, Table 111",0.08
same,"HPLC purity data, peak RT 11.41, RRT 0.94","[1]; t = 0, Table 112",0.07
same,"HPLC purity data, peak RT 12.01, RRT 0.99","[1]; t = 0, Table 112",0.02
same,"HPLC purity data, peak RT 12.14, RRT 1.00 (main peak)","[1]; t = 0, Table 112",99.65
same,"HPLC purity data, peak RT 14.32, RRT 1.18","[1]; t = 0, Table 112",0.03
same,"HPLC purity data, peak RT 15.05, RRT 1.24","[1]; t = 0, Table 112",0.05
same,"HPLC purity data, peak RT 15.41, RRT 1.27","[1]; t = 0, Table 112",0.07
same,"HPLC purity data, peak RT 15.78, RRT 1.30","[1]; t = 0, Table 112",0.04
same,"HPLC purity data, peak RT 16.50, RRT 1.36","[1]; t = 0, Table 112",0.08
same,"HPLC purity data, peak RT 11.29, RRT 0.93",[1]; [3],0.06
same,"HPLC purity data, peak RT 11.41, RRT 0.94",[1]; [3],0.02
same,"HPLC purity data, peak RT 12.41, RRT 1.00 (main peak)",[1]; [3],99.79
same,"HPLC purity data, peak RT 14.32, RRT 1.18",[1]; [3],0.03
same,"HPLC purity data, peak RT 15.05, RRT 1.24",[1]; [3],0.04
same,"HPLC purity data, peak RT 15.41, RRT 1.27",[1]; [3],0.02
same,"HPLC purity data, peak RT 11.41, RRT 0.94",[1]; [4],0.06
same,"HPLC purity data, peak RT 12.01, RRT 0.99",[1]; [4],0.02
same,"HPLC purity data, peak RT 12.14, RRT 1.00 (main peak)",[1]; [4],99.78
same,"HPLC purity data, peak RT 14.32, RRT 1.18",[1]; [4],0.03
same,"HPLC purity data, peak RT 14.68, RRT 1.21",[1]; [4],0.03
same,"HPLC purity data, peak RT 15.05, RRT 1.24",[1]; [4],0.05
same,"HPLC purity data, peak RT 15.41, RRT 1.27",[1]; [4],0.01
same,"HPLC purity data, peak RT 15.78, RRT 1.30",[1]; [4],0.02
"COc1ccc2c(ccn2C[C@@H](C)[NH+](C)C)c1.O=C(O)/C=C/C(=O)O [Compound 1 fumarate, (R)-1-(5-methoxy-1H-indol-1-yl)-N,N-dimethylpropan-2-amine fumarate]",Solid on cooling,"[2]; 2-MeTHF, 5 vol",Yes
same,Solution at reflux,"[2]; 2-MeTHF, 5 vol (200 mg/ml), fumarate",✓
same,Solution at reflux,"[2]; 2-MeTHF, 5 vol (200 mg/ml), listed as fumarate salt, fumarate",soluble
same,Solution at 20° C.,"[2]; Acetone, 5 vol (200 mg/ml), fumarate",✓
same,Solution at 20° C.,"[2]; Acetone, 5 vol (200 mg/ml), listed as fumarate salt, fumarate",soluble
same,Solution at 20° C.,"[2]; Butanol, 5 vol (200 mg/ml), fumarate",✓
same,Solution at 20° C.,"[2]; Butanol, 5 vol (200 mg/ml), listed as fumarate salt, fumarate",soluble
same,Solution at 20° C.,"[2]; DCM, 5 vol (200 mg/ml), fumarate",✓
same,Solution at 20° C.,"[2]; DCM, 5 vol (200 mg/ml), listed as fumarate salt, fumarate",soluble
same,Solid on cooling,"[2]; Dioxane, 5 vol",No
same,Solution at 40° C.,"[2]; Dioxane, 5 vol (200 mg/ml), fumarate",✓
same,Solution at 40° C.,"[2]; Dioxane, 5 vol (200 mg/ml), listed as fumarate salt, fumarate",soluble
same,Solution at 20° C.,"[2]; Ethanol, 5 vol (200 mg/ml), fumarate",✓
same,Solution at 20° C.,"[2]; Ethanol, 5 vol (200 mg/ml), listed as fumarate salt, fumarate",soluble
same,Solid on cooling,"[2]; IPA, 5 vol",Yes
same,Solution at 40° C.,"[2]; IPA, 5 vol (200 mg/ml), fumarate",✓
same,Solution at 40° C.,"[2]; IPA, 5 vol (200 mg/ml), listed as fumarate salt, fumarate",soluble
same,Solution at 20° C.,"[2]; MEK, 5 vol (200 mg/ml), fumarate",✓
same,Solution at 20° C.,"[2]; MEK, 5 vol (200 mg/ml), listed as fumarate salt, fumarate",soluble
same,Solid on cooling,"[2]; MIBK, 10, 15 & 20 vol",Yes
same,Solution at reflux,"[2]; MIBK, 10, 15 & 20 vol",✓
same,Dissolution in refluxing methylisobutyketone (MIBK),"[2]; MIBK, reflux, 15 vol concentration",dissolved
same,Solution at 20° C.,"[2]; MeCN, 5 vol (200 mg/ml), fumarate",✓
same,Solution at 20° C.,"[2]; MeCN, 5 vol (200 mg/ml), listed as fumarate salt, fumarate",soluble
same,Solution at 20° C.,"[2]; Methanol, 5 vol (200 mg/ml), fumarate",✓
same,Solution at 20° C.,"[2]; Methanol, 5 vol (200 mg/ml), listed as fumarate salt, fumarate",soluble
same,Solution at 20° C.,"[2]; THF, 5 vol (200 mg/ml), fumarate",✓
same,Solution at 20° C.,"[2]; THF, 5 vol (200 mg/ml), listed as fumarate salt, fumarate",soluble
same,Solution at 20° C.,"[2]; Water, 5 vol (200 mg/ml), fumarate",✓
same,Solution at 20° C.,"[2]; Water, 5 vol (200 mg/ml), listed as fumarate salt, fumarate",soluble
